Assay results: US10787451B2, “Crystalline form of GnRH receptor antagonist and preparation method therefor” (Jiangsu Hengrui Medicine Co., Ltd., priority 2016, dated 2020)
“Also recorded” adds a separate entry of the source.

Experiments:
[1] = Stability test of crystal forms spread flat in the air under lighting, heating and high humidity (HPLC purity, XRPD); assay type: physicochemical; conditions: for purity as detected by HPLC, 40° C.: heating 40° C.; for purity as detected by HPLC, 40° C. / purity as detected by HPLC, 60° C. / purity as detected by HPLC, RH 75% / purity as detected by HPLC, RH 90% / purity as detected by HPLC, Lighting: spread flat in the air; for purity as detected by HPLC, 60° C.: heating 60° C.; for purity as detected by HPLC, RH 75%: high humidity RH 75%; for purity as detected by HPLC, RH 90%: high humidity RH 90%; for purity as detected by HPLC, Lighting: lighting (4500 Lux)
Experimental: The product sample of crystal form I prepared in Example 1 and the product samples of crystal forms A, B, C and D prepared in Examples 12, 13, 14 and 15 were spread flat in the air to test sample stability under conditions of lighting (4500 Lux), heating (40° C., 60° C.), and high humidity (RH 75%, RH 90%). Samplings were carried out on Day 5 and Day 10.

[2] = Special stability study of crystal form I (grinding, heating, tableting; XRPD and DSC); assay type: physicochemical
Experimental: 1. Differential Scanning Calorimeter, DSC
Instrument type: Mettler Toledo DSC 1 STAR^e System
Heating rate: 10.0° C./min
Temperature range: 40-300° C.
2. X-Ray Powder Diffraction, XRPD
Instrument type: Bruker D8 Focus X-ray powder diffractometer
Ray: monochromatic Cu-Kα ray (λ=1.5406)
Scanning mode: θ/2θ, Scanning range: 2-40°
Voltage: 40 kV, Electric current: 40 mA
The sample of crystal form I of the compound of formula (I) prepared according to the method of Example 1 was ground, heated and tableted.

Row | Compound | purity as detected by HPLC, 40° C. ([1]; Day 0) | purity as detected by HPLC, 40° C. ([1]; Day 5) | purity as detected by HPLC, 40° C. ([1]; Day 10) | purity as detected by HPLC, 60° C. ([1]; Day 0) | purity as detected by HPLC, 60° C. ([1]; Day 5) | purity as detected by HPLC, 60° C. ([1]; Day 10) | purity as detected by HPLC, RH 75% ([1]; Day 0) | purity as detected by HPLC, RH 75% ([1]; Day 5) | purity as detected by HPLC, RH 75% ([1]; Day 10) | purity as detected by HPLC, RH 90% ([1]; Day 0) | purity as detected by HPLC, RH 90% ([1]; Day 5) | purity as detected by HPLC, RH 90% ([1]; Day 10) | purity as detected by HPLC, Lighting ([1]; Day 0) | purity as detected by HPLC, Lighting ([1]; Day 5) | purity as detected by HPLC, Lighting ([1]; Day 10) | other results
1 | CONC(=O)Nc1ccc(-n2nc3c(c2CN(C)C)c(=O)n(-c2ccc(OC)nn2)c(=O)n3Cc2c(F)cccc2F)cc1 [Crystal form A, 1-(4-(7-(2,6-Difluorobenzyl)-3-((dimethylamino)methyl)-5-(6-methoxypyridazin-3-yl)-4,6-dioxo-4,5,6,7-tetrahydro-2H-pyrazolo[3,4-d]pyrimidin-2-yl)phenyl)-3-methoxy urea] | 97.86% | 97.50% | 97.52% | 97.86% | 97.62% | 97.50% | 97.86% | 97.61% | 97.65% | 97.86% | 97.59% | 97.79% | 97.86% | 97.27% | 97.13% | –
2 | CONC(=O)Nc1ccc(-n2nc3c(c2CN(C)C)c(=O)n(-c2ccc(OC)nn2)c(=O)n3Cc2c(F)cccc2F)cc1 [Crystal form B, 1-(4-(7-(2,6-Difluorobenzyl)-3-((dimethylamino)methyl)-5-(6-methoxypyridazin-3-yl)-4,6-dioxo-4,5,6,7-tetrahydro-2H-pyrazolo[3,4-d]pyrimidin-2-yl)phenyl)-3-methoxy urea] | 99.69% | 99.45% | 99.03% | 99.69% | 99.45% | 99.34% | 99.69% | 99.52% | 99.34% | 99.69% | 99.47% | 99.34% | 99.69% | 99.39% | 99.19% | –
3 | CONC(=O)Nc1ccc(-n2nc3c(c2CN(C)C)c(=O)n(-c2ccc(OC)nn2)c(=O)n3Cc2c(F)cccc2F)cc1 [Crystal form C, 1-(4-(7-(2,6-Difluorobenzyl)-3-((dimethylamino)methyl)-5-(6-methoxypyridazin-3-yl)-4,6-dioxo-4,5,6,7-tetrahydro-2H-pyrazolo[3,4-d]pyrimidin-2-yl)phenyl)-3-methoxy urea] | 99.75% | 99.57% | 99.35% | 99.75% | 99.53% | 99.47% | 99.75% | 99.51% | 99.48% | 99.75% | 99.54% | 99.38% | 99.75% | 98.30% | 96.83% | –
4 | CONC(=O)Nc1ccc(-n2nc3c(c2CN(C)C)c(=O)n(-c2ccc(OC)nn2)c(=O)n3Cc2c(F)cccc2F)cc1 [Crystal form D, 1-(4-(7-(2,6-Difluorobenzyl)-3-((dimethylamino)methyl)-5-(6-methoxypyridazin-3-yl)-4,6-dioxo-4,5,6,7-tetrahydro-2H-pyrazolo[3,4-d]pyrimidin-2-yl)phenyl)-3-methoxy urea] | 99.67% | 99.44% | 99.31% | 99.67% | 99.48% | 99.40% | 99.67% | 99.57% | 99.34% | 99.67% | 99.57% | 99.39% | 99.67% | 99.43% | 99.22% | –
5 | CONC(=O)Nc1ccc(-n2nc3c(c2CN(C)C)c(=O)n(-c2ccc(OC)nn2)c(=O)n3Cc2c(F)cccc2F)cc1 [Crystal form I, 1-(4-(7-(2,6-difluorobenzyl)-3-((dimethylamino)methyl)-5-(6-methoxypyridazin-3-yl)-4,6-dioxo-4,5,6,7-tetrahydro-2H-pyrazolo[3,4-d]pyrimidin-2-yl)phenyl)-3-methoxyurea] | 99.36% | 99.33% | 99.41% | 99.36% | 99.24% | 99.30% | 99.36% | 99.22% | 99.31% | 99.36% | 99.27% | 99.27% | 99.36% | 99.26% | 99.20% | DSC peak ([2]; after grinding treatment for 10 minutes): 166.16 °C; DSC peak ([2]; after heating treatment for 3 hours at 80° C.): 168.36 °C; DSC peak ([2]; after tableting treatment): 168.97 °C; crystal form during grinding, heating and tableting procedure ([2]; grinding, heating and tableting): not changed; crystal form by XRPD test after exposure ([1]; lighting, high humidity and high temperature, spread in the air): not changed; also recorded: unchanged; stability compared with crystal forms A, B, C and D ([1]; lighting, high humidity and high temperature, decrease of HPLC purity): significantly better
